From patent US11072612B2, “NLRP3 modulators” (INNATE TUMOR IMMUNITY, INC., priority 2016, dated 2021) come the findings set out here.

As usually defined, the EC50 is the midpoint of the concentration-response curve. Low values mean higher potency in that assay, high ones lower potency in that assay.

Holding throughout (format): cell-based
The target in one test is T1, TLR8 (Homo sapiens, UniProt Q9NR97).
T1 sequence (Q9NR97 27-1041): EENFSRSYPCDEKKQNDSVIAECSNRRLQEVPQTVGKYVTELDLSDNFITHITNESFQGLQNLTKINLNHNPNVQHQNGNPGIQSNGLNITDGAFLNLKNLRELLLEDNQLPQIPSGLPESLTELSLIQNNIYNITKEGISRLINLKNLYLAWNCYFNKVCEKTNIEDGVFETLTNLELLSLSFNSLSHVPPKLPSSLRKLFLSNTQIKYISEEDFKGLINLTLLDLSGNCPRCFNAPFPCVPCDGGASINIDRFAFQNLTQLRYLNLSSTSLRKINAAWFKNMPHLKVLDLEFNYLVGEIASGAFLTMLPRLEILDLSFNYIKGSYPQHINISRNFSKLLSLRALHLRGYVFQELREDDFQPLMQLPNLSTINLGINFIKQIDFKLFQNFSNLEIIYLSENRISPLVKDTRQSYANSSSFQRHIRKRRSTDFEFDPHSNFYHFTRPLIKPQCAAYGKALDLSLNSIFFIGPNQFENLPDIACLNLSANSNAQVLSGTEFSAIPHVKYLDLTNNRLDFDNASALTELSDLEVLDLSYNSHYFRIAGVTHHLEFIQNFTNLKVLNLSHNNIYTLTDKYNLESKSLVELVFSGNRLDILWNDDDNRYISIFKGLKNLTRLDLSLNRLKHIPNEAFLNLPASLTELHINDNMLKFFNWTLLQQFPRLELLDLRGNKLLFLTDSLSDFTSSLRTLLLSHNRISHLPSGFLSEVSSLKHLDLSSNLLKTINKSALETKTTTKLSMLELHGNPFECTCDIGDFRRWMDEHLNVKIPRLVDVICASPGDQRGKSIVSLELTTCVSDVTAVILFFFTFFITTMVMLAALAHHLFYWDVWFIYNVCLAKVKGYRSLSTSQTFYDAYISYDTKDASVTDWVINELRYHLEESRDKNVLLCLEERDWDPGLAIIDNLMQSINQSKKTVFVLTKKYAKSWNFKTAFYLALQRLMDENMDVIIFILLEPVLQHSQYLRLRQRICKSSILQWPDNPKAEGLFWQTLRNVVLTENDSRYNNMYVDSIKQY
Description: TLR8 EC50 assay. The settings on record: Table 2.

For a further test, the target named is T2, hNLRP3 (Homo sapiens, UniProt Q96P20).
T2 construct: THP-1 cells were purchased from the American Type Culture Collection; host or cells: THP-1 cells, PMA-differentiated
T2 sequence (Q96P20 whole entry): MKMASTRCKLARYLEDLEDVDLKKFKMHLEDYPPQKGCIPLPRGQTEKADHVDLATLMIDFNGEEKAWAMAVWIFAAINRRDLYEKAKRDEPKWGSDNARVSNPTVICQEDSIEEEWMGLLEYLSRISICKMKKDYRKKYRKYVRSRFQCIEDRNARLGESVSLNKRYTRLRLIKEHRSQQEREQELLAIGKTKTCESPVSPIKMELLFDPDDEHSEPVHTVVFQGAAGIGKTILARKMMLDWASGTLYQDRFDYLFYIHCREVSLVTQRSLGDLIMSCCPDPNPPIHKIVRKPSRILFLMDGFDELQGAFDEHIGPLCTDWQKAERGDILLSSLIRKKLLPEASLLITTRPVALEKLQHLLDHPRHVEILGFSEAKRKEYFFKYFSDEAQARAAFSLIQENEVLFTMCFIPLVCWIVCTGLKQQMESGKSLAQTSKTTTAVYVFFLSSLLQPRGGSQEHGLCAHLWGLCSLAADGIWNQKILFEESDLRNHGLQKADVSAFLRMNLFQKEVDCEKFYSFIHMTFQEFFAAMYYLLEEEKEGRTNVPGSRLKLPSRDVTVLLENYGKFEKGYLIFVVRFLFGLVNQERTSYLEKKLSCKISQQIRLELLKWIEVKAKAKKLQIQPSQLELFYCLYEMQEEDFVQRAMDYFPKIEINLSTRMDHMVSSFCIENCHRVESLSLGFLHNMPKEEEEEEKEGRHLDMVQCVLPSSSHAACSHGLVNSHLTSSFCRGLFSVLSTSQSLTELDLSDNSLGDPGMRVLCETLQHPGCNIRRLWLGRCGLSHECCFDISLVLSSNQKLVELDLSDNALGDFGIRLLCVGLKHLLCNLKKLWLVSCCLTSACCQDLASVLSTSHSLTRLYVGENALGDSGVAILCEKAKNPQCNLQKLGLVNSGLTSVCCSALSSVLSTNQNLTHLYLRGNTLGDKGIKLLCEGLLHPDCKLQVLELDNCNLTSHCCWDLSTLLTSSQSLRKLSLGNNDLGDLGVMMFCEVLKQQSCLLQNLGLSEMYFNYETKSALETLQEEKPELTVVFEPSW
The experiment in a line: hNLRP3 agonist assay: IL-1β production in PMA-differentiated THP-1 cells (ELISA). The settings on record: Table 2, 4 hours, IL-1β by ELISA. On the technique in general: In an ELISA, binding on a coated surface is turned into a signal by an enzyme label.

A further test concerns the target T3, TLR7 (Homo sapiens, UniProt Q9NYK1).
T3 sequence (Q9NYK1 27-1049): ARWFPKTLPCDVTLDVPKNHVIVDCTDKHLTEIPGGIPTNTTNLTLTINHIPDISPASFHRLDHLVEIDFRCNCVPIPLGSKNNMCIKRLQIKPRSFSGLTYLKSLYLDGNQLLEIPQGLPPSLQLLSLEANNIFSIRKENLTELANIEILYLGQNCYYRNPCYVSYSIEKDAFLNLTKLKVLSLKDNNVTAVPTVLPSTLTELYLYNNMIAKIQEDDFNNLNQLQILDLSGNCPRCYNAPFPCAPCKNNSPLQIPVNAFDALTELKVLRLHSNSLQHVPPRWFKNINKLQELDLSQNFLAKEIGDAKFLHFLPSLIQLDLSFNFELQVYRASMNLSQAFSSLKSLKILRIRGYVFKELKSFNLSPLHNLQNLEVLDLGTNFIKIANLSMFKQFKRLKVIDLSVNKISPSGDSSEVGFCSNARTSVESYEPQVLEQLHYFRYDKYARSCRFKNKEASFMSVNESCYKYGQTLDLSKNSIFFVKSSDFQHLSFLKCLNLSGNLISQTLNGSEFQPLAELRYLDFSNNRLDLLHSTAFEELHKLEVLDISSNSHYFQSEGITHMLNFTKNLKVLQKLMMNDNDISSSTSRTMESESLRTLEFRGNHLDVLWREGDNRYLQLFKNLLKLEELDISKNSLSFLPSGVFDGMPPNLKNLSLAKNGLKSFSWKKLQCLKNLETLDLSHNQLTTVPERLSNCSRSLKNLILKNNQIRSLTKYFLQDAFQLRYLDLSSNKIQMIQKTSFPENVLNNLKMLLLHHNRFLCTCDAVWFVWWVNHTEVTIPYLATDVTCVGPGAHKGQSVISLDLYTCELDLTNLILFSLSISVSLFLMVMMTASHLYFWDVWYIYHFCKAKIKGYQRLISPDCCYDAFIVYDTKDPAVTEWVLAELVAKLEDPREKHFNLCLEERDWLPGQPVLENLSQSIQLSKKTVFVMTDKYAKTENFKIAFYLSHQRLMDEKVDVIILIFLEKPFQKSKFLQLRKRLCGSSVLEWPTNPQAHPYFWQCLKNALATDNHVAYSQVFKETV
The experiment in a line: TLR7 EC50 assay. The settings on record: Table 2.

For `CCN(C(C)=O)C(C)(C)c1nc2c(N)nc3cc(-c4cc[nH]n4)ccc3c2[nH]1` [Compound 253], the EC50 at TLR8 was more than 100 µM; on hNLRP3 it was 1 to 20 µM; on TLR7 it was more than 100 µM.
For `Cn1c(CCCO)nc2c(N)nc3cc(-c4cc[nH]n4)ccc3c21` [Compound 107], the figures for the EC50 at TLR8, at hNLRP3 and on TLR7 were more than 100 µM, not above 1 µM and more than 100 µM, respectively.
As to `Nc1nc2cc(Br)ccc2c2[nH]c(C3CCC(N)CC3)nc12` (stereo not drawn) [Compound 131], the concentration for a half-maximal effect (EC50) on TLR8 is 20 to 100 µM; at hNLRP3, 20 to 100 µM; on TLR7, more than 100 µM.
As for `CN(C)c1nc(-c2ccc3c(c2)nc(N)c2nc(CCCO)[nH]c23)cs1` [Compound 177, 3-[4-amino-7-[2-(dimethylamino)-1,3-thiazol-4-yl]-1H-imidazo[4,5-c]quinolin-2-yl]propan-1-ol], the EC50 on TLR8, on hNLRP3 and at TLR7 was more than 100 µM throughout.
Turning to `Nc1nc2cc(-c3ccsc3)ccc2c2[nH]c(CCCO)nc12` [Compound 186, 3-(4-amino-7-thiophen-3-yl-1H-imidazo[4,5-c]quinolin-2-yl)propan-1-ol], the values for the EC50 at TLR8, at hNLRP3 and at TLR7 were more than 100 µM, not above 1 µM and more than 100 µM, respectively.
Take `Nc1nc2cc(-c3ccc(Cl)cc3)ccc2c2[nH]c(CCCO)nc12` [Compound 209, 3-[4-amino-7-(4-chlorophenyl)-1H-imidazo[4,5-c]quinolin-2-yl]propan-1-ol]: the EC50 on TLR8, on hNLRP3 and on TLR7 was more than 100 µM throughout.
Consider `COc1ccncc1-c1ccc2c(c1)nc(N)c1nc(CCCO)[nH]c12` [Compound 171, 3-[4-amino-7-(4-methoxypyridin-3-yl)-1H-imidazo[4,5-c]quinolin-2-yl]propan-1-ol], for which the EC50 at TLR8, at hNLRP3 and on TLR7 was more than 100 µM throughout.
For the compound `CC(C)(C)OC(=O)N1CCC(c2nc3c(N)nc4cc(-n5cccn5)ccc4c3[nH]2)CC1` [Compound 218], the EC50 at TLR8 was more than 100 µM; at hNLRP3 it was not above 1 µM; on TLR7 it was more than 100 µM.
On to `Cc1cc(-c2ccc3c(c2)nc(N)c2nc(CCCO)[nH]c23)n(C)n1` [Compound 151, 3-[4-amino-7-(2,5-dimethylpyrazol-3-yl)-1H-imidazo[4,5-c]quinolin-2-yl]propan-1-ol], for which the EC50 at TLR8 is more than 100 µM; at hNLRP3, 1 to 20 µM; on TLR7, more than 100 µM.
Regarding `Nc1nc2cc(-c3ccncc3)ccc2c2[nH]c(CCCOCc3ccccc3)nc12` [Compound 148, 2-(3-phenylmethoxypropyl)-7-pyridin-4-yl-1H-imidazo[4,5-c]quinolin-4-amine], the values for the EC50 at TLR8, at hNLRP3 and on TLR7 were more than 100 µM, 20 to 100 µM and more than 100 µM, respectively.
In the case of `CC(=O)c1ccc2c(c1)nc(N)c1nc(CCCO)[nH]c12` [Compound 119], the EC50 was more than 100 µM at TLR8, 1 to 20 µM at hNLRP3 and more than 100 µM at TLR7.
Take `Nc1nc2ccccc2c2[nH]c([C@H]3C[C@@H](O)C3)nc12` [Compound 132]: the concentration for a half-maximal effect (EC50) on TLR8 is more than 100 µM; on hNLRP3, 20 to 100 µM; on TLR7, more than 100 µM.
As for `CN(C)c1ncc(-c2ccc3c(c2)nc(N)c2nc(CCCO)[nH]c23)cn1` [Compound 156, 3-[4-amino-7-[2-(dimethylamino)pyrimidin-5-yl]-1H-imidazo[4,5-c]quinolin-2-yl]propan-1-ol], the EC50 at TLR8, on hNLRP3 and on TLR7 was more than 100 µM in each case.
Regarding `COc1ccc2c(c1)nc(N)c1nc(CCCO)[nH]c12` [Compound 124], the EC50 at TLR8 was more than 100 µM; at hNLRP3, 1 to 20 µM; at TLR7, more than 100 µM.
For the compound `CC(C)(C)OC(=O)N1CCC(c2nc3c(N)nc4cc(-c5ccccc5)ccc4c3[nH]2)CC1` [Compound 219], the EC50 was more than 100 µM on TLR8, not above 1 µM at hNLRP3 and more than 100 µM at TLR7.
With `Nc1nc2cc(-c3cccc(Cl)c3)ccc2c2[nH]c(CCCO)nc12` [Compound 204, 3-[4-amino-7-(3-chlorophenyl)-1H-imidazo[4,5-c]quinolin-2-yl]propan-1-ol], the EC50 at TLR8, on hNLRP3 and at TLR7 was more than 100 µM throughout.
Consider `Nc1nc2cc(-n3ccnc3)ccc2c2[nH]c(CCCO)nc12` [Compound 179, 3-(4-amino-7-imidazol-1-yl-1H-imidazo[4,5-c]quinolin-2-yl)propan-1-ol], for which the half-maximal effective concentration (EC50) on TLR8, on hNLRP3 and on TLR7 was more than 100 µM in each case.
In the case of `Nc1nc2cc(-c3cc[nH]n3)ccc2c2[nH]c(CN3CCCC3)nc12` [Compound 233], the EC50 on TLR8 was more than 100 µM; on hNLRP3 it was not above 1 µM; on TLR7 it was more than 100 µM.
Consider `CCN(C(=O)OC(C)(C)C)C(C)c1nc2c(N)nc3cc(-c4cc[nH]n4)ccc3c2n1Cc1ccc(OC)cc1` (stereo not drawn) [Compound 242], for which the EC50 on TLR8 was more than 100 µM; on hNLRP3, 1 to 20 µM; on TLR7, more than 100 µM.
With `Cn1c(CCCO)nc2c(N)nc3ccccc3c21` [Compound 130], the concentration giving a half-maximal response (EC50) at TLR8 is more than 100 µM; at hNLRP3, 20 to 100 µM; at TLR7, more than 100 µM.
As for `CN(CCCc1nc2c(N)nc3cc(-c4cncnc4)ccc3c2[nH]1)C(=O)OC(C)(C)C` [Compound 123], the results for the EC50 on TLR8, at hNLRP3 and at TLR7 were more than 100 µM, 1 to 20 µM and more than 100 µM, respectively.
As for `Nc1nc2cc(C3CCCCC3)ccc2c2[nH]c(CCCO)nc12` [Compound 174, 3-(4-amino-7-cyclohexyl-1H-imidazo[4,5-c]quinolin-2-yl)propan-1-ol], the results for the EC50 on TLR8, at hNLRP3 and at TLR7 were more than 100 µM, 20 to 100 µM and more than 100 µM, respectively.
For the compound `CN(C)C(=O)CCCn1c(CCCO)nc2c(N)nc3cc(Br)ccc3c21` [Compound 169], the EC50 at TLR8 is more than 100 µM; on hNLRP3, 1 to 20 µM; on TLR7, more than 100 µM.
As to `CC(C)c1ccc2c(c1)nc(N)c1nc(CCCO)[nH]c12` [Compound 159, 3-(4-amino-7-propan-2-yl-1H-imidazo[4,5-c]quinolin-2-yl)propan-1-ol], the EC50 was more than 100 µM at TLR8, 1 to 20 µM at hNLRP3 and 20 to 100 µM on TLR7.
The like results for `Nc1nc2cc(Oc3ccccc3)ccc2c2[nH]c(CCCO)nc12` [Compound 163, 3-(4-amino-7-phenoxy-1H-imidazo[4,5-c]quinolin-2-yl)propan-1-ol] were, in that order, more than 100 µM, 20 to 100 µM and more than 100 µM.
As for `COc1cccc(-c2ccc3c(c2)nc(N)c2nc(CCCO)[nH]c23)n1` [Compound 246], the EC50 was more than 100 µM on TLR8, 1 to 20 µM at hNLRP3 and more than 100 µM on TLR7.
Turning to `CC(C)(C)OC(=O)NC1CCC(c2nc3c(N)nc4cc(Br)ccc4c3[nH]2)CC1` (stereo not drawn) [Compound 110], the EC50 at TLR8 is more than 100 µM; at hNLRP3, 1 to 20 µM; at TLR7, more than 100 µM.
